Assay results: US4968686A, “Acyclic pyrrolo [2,3-d]pyrimidine analogs as antiviral agents” (The Regents of The University of Michigan, priority 1989, dated 1990)

Assays:
KB cells = test: Growth of KB cells (population doubling times); assay type: cell-based, human; conditions: for Population Doubling time: KB cells, control 23 hr
Description: Population doubling times and cell viability were measured in uninfected HFF and/or KB cells. Cells were planted in replicate 6-well plastic tissue culture dishes or in 25 cm^2 flasks as described above in part 1. Following an incubation period during which cells attached to the substrate, medium was decanted, the cell sheet rinsed once with HBS, and fresh medium added. The medium consisted of MEM(E) with 1.1 gm NaHCO3 /liter and 10% fetal bovine or calf serum plus appropriate log or half-log concentrations of drug. After additional periods of incubation from 1 to 72 hours at 37° C., cells were harvested by means of 0.05% trypsin plus 0.02% EDTA in a HEPES-buffered salt solution. Cells were enumerated using either a Coulter counter or a hemocytometer and viability determining using trypsan blue dye exclusion.
In more extensive cytotoxicity testing, the halogenated compounds were tested for effects on the growth of KB cells. Populations doubling times were calculated from the logarithmic portions of growth curves and were as follows: […]

HCMV DNA synthesis = HCMV DNA synthesis by dot-blot hybridization; assay type: cell-based, human cytomegalovirus in HFF cells; conditions: Human betaherpesvirus 5, read-out: HCMV DNA Synthesis, 50% Inhibitory Concentration
Description: The amount of HCMV DNA synthesis was determined in two types of experiments: (a) as an integral part of HCMV titer (yield) reduction experiments and (b) as separate experiments to determine only the amount of viral DNA synthesis in the absence or presence of test compounds.
HFF cells were planted in 25 cm^2 flasks and infected with HCMV as described in part 2 and incubated at 37° C. Before harvesting at selected times by the addition of 0.1 volume of 0.2M EDTA, an aliquot of medium was removed for determination of HCMV titer. After harvesting cells into the medium, aliquots were retained for determination of HCMV DNA by hybridization.
HFF cells were planted in 96-well cluster plates at 20,000 cell/well in 200 μl of growth medium [MEM(E)] with 1.1 gm/liter NaHCO3 and 10% fetal bovine serum. After incubation in a humidified atmosphere of 4% CO2 -96% air for 1 to 2 days, growth medium was aspirated and the 70% confluent cells were infected at a m.o.i. of 0.5 p.f.u. per cell by addition of HCMV in 100 μl of MEM(E) with 1.1 gm/l liter NaHCO3 and 5% fetal bovine serum (maintenance medium). Following a 1-hour incubation at 37° C. for virus adsorption, 100 μl of selected concentrations of test compounds were added to each of triplicate wells in twice their final concentration of maintenance medium. Usually 3 to 6 concentrations of compounds were tested in 3.2- or 10-fold dilutions along with appropriate triplicate no drug and no virus controls. Plates were incubated for 7 days and harvested by addition of 100 μl of 0.25M EDTA per well. After a 30-minute incubation of 37° C. to free the cells, the contents of the wells were filtered as described below or frozen at -76° C. for subsequent analysis. The following procedure adapted from Gadler, H., Antimicrob. Agents Chemother., 24:370 (1983) was employed for the hybridization portion of the assay:
The contents of each well were removed and filtered through Gene Screen™ (NEN Research Products), presoaked in 10×SSC (1×SSC is 0.15M NaCl, 0.015M NaCitrate), using a 96-well filtration manifold (Schleicher and Schuell). The original microtiter plate wells were rinsed with 200 μl HEPES buffered saline and the contents added to the filter manifold.
The Gene Screen membrane was dried at room temperature and then baked at 80° to 100° C. for 3 to 4 hours. The DNA on the membrane was denatured by placing the membrane (sample side up) sequentially on filter papers soaked in (a) 0.5M NaOH for 30 minutes, (b) 0.1 M NaOH, 1.5M NaCl for 5 minutes, (c) 1M Tris HCl, pH 7.5 twice each for 5 minutes, (d) 0.5M Tris HCl, pH 7.5, 1.5M NaCl for 5 minutes and then dried at room temperature. The membrane was added to a "hybridization bag" and prehybridized at 65° C. for (greater or equal to) 6 hours in 10 ml 0.2% polyvinylpyrrolidone (MW 40,000); 0.2% ficoll (MW 400,000); 0.2% bovine serum albumin; 0.05 M Tris HCl, pH 7.5; 0.1% sodium pyrophosphate; 1M NaCl; 10% dextran sulfate (ME 500,000) and 0.1 mg/ml denatured salmon testes DNA. […]
Following hybridization, the membrane was washed sequentially in 100 ml 2×SSC at room temperature twice each for 5 minutes, 100 ml 2×SCC plus 1% SDS at 65° C. twice each for 30 minutes and then 100 ml 0.1×SSC at room temperature twice each for 30 minutes. The membrane was dried at room temperature and each filtration spot was cut from the membrane and placed into 4 ml of toluene/DPO scintillant and hybridized label counted in a liquid scintillation spectrometer. […]

[1] = comparison with UMJD 102 / UMJD 183

## Nc1ncnc2c1c(Br)cn2COCCO [UMJD 102, 4-Amino-5-bromo-7-(2-hydroxyethoxymethyl)pyrrolo[2,3-d]-pyrimidine]
KB cells; 0.1 μM
  Population Doubling time: 30 h
KB cells; 1.0 μM
  Population Doubling time: 43 h
KB cells; 10.0 μM
  Population Doubling time: 84 h
KB cells; Homo sapiens, KB, read-out: lowest concentration that inhibited growth of KB cells
  minimal effective concentration: 0.1 µM
KB cells; [1]
  effect on KB cell growth (in words): cytostatic
HCMV DNA synthesis
  IC50: 3.2 µM

## Nc1ncnc2c1c(Br)cn2COC(CO)CO [UMJD 183, 4-amino-5-bromo-7-[(1,3-dihydroxy-2-propoxy)methyl]-pyrrolo[2,3-d]pyrimidine]
KB cells
  duration of KB cell growth in presence of drug before slowing or stopping: up to 20 hours
KB cells; [1]
  effect on KB cell growth (in words): inhibited, but to a lesser extent
KB cells; up to 32 μM, 50 hours
  KB cell growth for 50 hours (in words): at a reduced rate

## Nc1ncnc2c1c(Cl)cn2COCCO [UMJD 100, 4-Amino-5-chloro-7-(2-hydroxyethoxymethyl)pyrrolo[2,3-d]-pyrimidine]
KB cells; 1.0 μM
  Population Doubling time: 25 h
KB cells; 10.0 μM
  Population Doubling time: 25 h
KB cells; 100 μM
  effect on KB cell growth (in words): only a minor extent
KB cells; 100.0 μM
  Population Doubling time: 27 h
HCMV DNA synthesis
  IC50: 15 µM

## Nc1nc(O)c2ncn(COC(CO)CO)c2n1 [Ganciclovir (DHPG), reference compound]
HCMV DNA synthesis
  IC50: 1.1 µM

## OCC(CO)OCn1cc(Br)c2c(NO)ncnc21 [UMJD 299, 4-hydroxylamino-5-bromo-7-[(1,3-dihydroxy-2-propoxy)methyl]pyrrolo[2,3-d]pyrimidine]
KB cells; 10 μM
  KB cell growth rate (in words): nearly control rates
KB cells; [1]
  effect on KB cell growth (in words): considerably lesser effects on cell growth

## Nc1ncnc2c1c(I)cn2COCCO [UMJD 104, 4-Amino-5-iodo-7-(2-hydroxyethoxymethyl)pyrrolo[2,3-d]-pyrimidine]
KB cells; 0.1 μM
  Population Doubling time: 26 h
KB cells; 1.0 μM
  Population Doubling time: 25 h
KB cells; 10.0 μM
  Population Doubling time: 30 h
HCMV DNA synthesis
  IC50: 47 µM

## Nc1nc2c(ncn2COCCO)c(=O)[nH]1 [Acyclovir, reference compound]
HCMV DNA synthesis
  IC50: 35 µM
